Results on two molecules are retold here after publication PMC7357169, “Blinded, Multicenter Evaluation of Drug-induced Changes in Contractility Using Human-induced Pluripotent Stem Cell-derived Cardiomyocytes” (Toxicological Sciences, 2020).

Usually pIC50 stands for −log10 of the IC50, conventionally taken in molar units.

pEC50, pIC50: −log10 of the molar value.

One data set deals with cardiac contractility. The following applies: isolated cardiomyocytes/heart muscles, Refs of Supplementary Table 1, cited from earlier work; for pEC50: read-out: Expected effect on contractility in isolated cardiomyocytes/heart muscles, EC50.
The test system of the next data set is heart. Also noted: method as in Refs column of Supplementary Table 1. The following applies: Refs of Supplementary Table 1; cited from earlier work.
The next data set has as its system hiPSC-CM EHTs. In words: EHT contractility with beat rate slowed by 300 nM ivabradine and electrical pacing 0.5-2.0 Hz. The data set is classed as cell-based, human. The following applies: EHTs with 300 nM ivabradine, paced; only at 0.5 and 0.7 Hz, sometimes at 1 Hz, never at 1.5 or 2 Hz; high concentration bolus. The method, then:
We extended these studies to the 3D EHT platform, this time slowing spontaneous beating to < 0.5 Hz with 300 nM ivabradine, a pharmacological blocker of the “funny” If current ([Bois et al., 1996]). […] Whereas force-frequency relationships was negative above 1.5 Hz, it was positive between 0.5 and 1.5 Hz, evidenced by a 147% increase in force generation concurrent with significant shortening of CT and RT (Supplementary Figure 6). We therefore re-evaluated 6 of the PIs in the presence of 300 nM ivabradine with electrical pacing at 0.5, 0.7, 1.0, 1.5, and 2.0 Hz. These also included epinephrine, levosimendan, and pimobendan, which had been incorrectly predicted by EHT:R-PAT and/or EHT:ERC platform-cell combinations. […] Thus, in both 2D and 3D configurations, lower beating frequencies led to increased predictivity for PIs.
Figure 5. Slowed beat rate increases the predictivity of positive inotropes (PIs) in 3D engineered heart tissues (EHTs). Contraction analysis was carried out using EHTs with 6 of the PIs from the drug test set: epinephrine (Epi), forskolin (For), levosimendan (Lev), pimobendan (Pim), dobutamine (Dob), and milrinone (Mil) which had been predicted with variable accuracy (Figure 4A, web tool). […] Scatter plots show percentage changes relative to baseline at respective frequency. Averaged peaks for force are shown for baseline (BL, black peaks) versus after treatment in EHTs paced at 0.5 Hz (blue peaks) or 2.0 Hz (red peaks). Dunnett’s stats versus baseline at respective frequency: *p < .05; **p < .01; ***p < .001; ****p < .0001.
Supplementary Figure 6. Positive force frequency relationship in EHTs paced between 0.5 and 1.5 Hz. Spontaneous beat rate of EHTs was reduced by 3 hour pre-treatment with 300 nM ivabradine, an If current inhibitor. […] CA increased from 0.5 to 1.5 Hz but plateaued and declined at higher frequencies. These changes were reflected in the CT and RT data. Dunnett's stats vs vehicle control: *, P<0.05; **, P<0.01; ***, P<0.001; ****, P<0.0001.

The conditions of data set [1]: cited from earlier work; for FTPC: free therapeutic plasma concentration, Refs of Supplementary Table 1; for FPTC (free plasma therapeutic concentration): ref Supplementary Table 1.
The next data set relates to PDE3. On the set-up: method as in Refs column of Supplementary Table 1. The following applies: Refs of Supplementary Table 1; read-out: PDE3 inhibitor IC50; cited from earlier work.
The next data set has as its system hiPSC-CMs. On the set-up: method as in Zhao et al., 2019. The following applies: hiPSC-CMs under loaded conditions; ref Zhao et al., 2019; cited from earlier work.

Take `C[C@@H]1CC(=O)NN=C1c1ccc(NN=C(C#N)C#N)cc1` [Levosimendan]: in the data set on cardiac contractility, the “Expected effect on contractility in isolated cardiomyocytes/heart muscles” value was “Small PI (~50%), PC#, PCl+PL (14%)”; the “PCl+PL” value is reported as 14%; the “Small PI” value is around 50%; the pEC50 is around 7.00. Moreover, in the data set on heart, the “Expected cardiac effects in vivo” value is “PI, PC (more heart rate increase and RR decrease than dobutamine)”. Besides, in the data set on hiPSC-CM EHTs, the CA response result is “increased contraction amplitude”. Also, in data set [1], the FTPC was 0.026 to 0.35 µM and the “FPTC (free plasma therapeutic concentration)” value is 0.026 to 0.35 µM. Moreover, in the data set on PDE3, the pIC50 is 7.60.
As to `Cc1[nH]c(=O)c(C#N)cc1-c1ccncc1` [Milrinone], in the data set on cardiac contractility, the “Expected effect on contractility in isolated cardiomyocytes/heart muscles” value is on record as “Small PI, PC#, PCl, PL (smaller than ISO)” and the pEC50 is 4.22. In addition, the “Expected cardiac effects in vivo” value with heart was “PI, PC (more heart rate increase and RR decrease than dobutamine)”. In addition, in the data set with hiPSC-CMs, the “inotropy in Biowire II constructs” value is recorded as “positive inotropy”. Moreover, in the data set on hiPSC-CM EHTs, the CA response entry is “increased contraction amplitude”. For the same molecule, in data set [1], the FTPC was 0.1 to 0.15 µM and the “FPTC (free plasma therapeutic concentration)” value was 0.1 to 0.15 µM.
